Data from patent US20200054541A1, “METHODS FOR REDUCING SWEAT AND/OR BODY ODOR, USING P[…] WITH AMINE AND/OR HYDROXYL GROUPS” (Henkel AG & Co. KGaA, priority 2017, published 2020).

System: backs of 16 test persons
Assay: In vivo test for antiperspirant activity (sauna sweat test, gravimetric)
Design: species or system human
Conditions: 5.0% by weight aqueous solution, 75 μL applied on the back on four consecutive days; measured 24 h after last application; about 15 minutes at 80° C. in the sauna; gravimetric vs untreated site; 16 subjects
Description: 1. In Vivo Test for Antiperspirant Activity
To determine the antiperspirant effect, an antiperspirant study was performed on the backs of 16 test persons. A 5.0% by weight aqueous solution of a phosphonate compound of the Formula (I) with a=b=1, R=*—(CH2)x—PO3X^+Y^+ group where x=1 and X^+=Y^+=hydrogen or Na^+ was prepared for this purpose.
75 μL of the prepared solution were applied on the back of 16 subjects on one side next to the spine. After 5 minutes, the treated sites were covered with occlusive non-adsorbent film. These non-adsorbent pads were removed after 2 hours. The compositions were each applied to the backs of the subjects for four consecutive days in the manner previously described. 24 h after the last application of the composition, absorbent pads were applied to the backs of the subjects at the sites where the compositions were previously applied. Furthermore, pads, which served as a control, were also applied on the other side of the spine at the same height. After the subjects had sweat for about 15 minutes at 80° C. in the sauna, the amount of perspiration absorbed by the pads was determined gravimetrically, wherein each composition was compared with the corresponding untreated site on the back. The sweat reduction was determined from the gravimetric determination of the amount of sweat, wherein all determined values were statistically significant.

SMILES: O=P(O)(O)CN(CP(=O)(O)O)CP(=O)(O)O [phosphonate compound of Formula (I), aminotrimethylene phosphonate]
- sweat reduction: 10.1%
